Measurements reported in patent US12060334B2, “3-substituted phenazine derivatives as antimicrobial agents” (University of Florida Research Foundation, Incorporated, priority 2021, dated 2024).
≈ marks a conversion by molar mass, not a printed value. Where “and” joins values, the source holds several entries; their conditions need not be identical. Equal entries are not always repeated. Entries after “also recorded” stand apart in the source; their conditions may differ. Where two headings read alike, the source gives them in different places. Marks after values point to notes of the source that are not given here.

Experiments:
[1] = pKa determination by UV-vis spectroscopy; assay type: physicochemical
Method: (c) pKa determination of select HP analogues.^36 Dissociation constants (pKa) for select HP analogues were determined using UV-vis spectroscopy and the Henderson-Hasselbalch equation. Buffers were prepared using potassium phosphate monobasic (KH2PO4) and sodium phosphate dibasic ([…]) in a 1:1 solution of water:methanol to achieve a pH range of 4.07 to 9.66 (ammonium hydroxide was added to prepare buffer pH over 9.80). Compounds were added from 10 mM stock solutions in dimethyl sulfoxide (25 μL) to 1975 μL of each buffer to each evaluate analogue to yield a final compound concentration of 125 μM. Full spectral scans were performed from 200 to 800 nm in 2 nm increments to determine λmax values for the protonated phenol (HA) and the deprotonated phenolate species (A^−). The change in absorption at each determined λmax in relation to pH was monitored in each buffer and plotted as absorbance versus pH for each species. The pKa was first estimated by determining the pH of the point of intersection of the two linear curves. The visual estimation was confirmed by plotting pH versus log [A^−/HA]. The resulting plot yielded a linear regression line with a Y-intercept corresponding to a calculated pKa value.

[2] = system: MRSA-1707; experiment: MIC susceptibility assay (broth microdilution); conditions: 16 h; for MIC: Staphylococcus aureus, MRSA, read-out: MIC MRSA-1707, planktonic growth inhibition, 16 h, 37° C.
Method: (§1) (MIC values were further supported by spectrophotometric readings at OD600). The concentration range tested for each HP compound during this study was 0.05 to 50 μM. DMSO served as our vehicle and negative control in each microdilution MIC assay. DMSO was serially diluted with a top concentration of 0.5% v/v.

[3] = system: MRSE 35984; experiment: MIC susceptibility assay (broth microdilution); conditions: Staphylococcus epidermidis, MRSE, 16 h, read-out: MIC MRSE 35984
Method: as §1

[4] = system: VRE 700221; experiment: MIC susceptibility assay (broth microdilution); conditions: Enterococcus, VRE, 16 h, read-out: MIC VRE 700221
Method: The concentration range tested for each HP compound during this study was 0.05 to 50 μM. DMSO served as our vehicle and negative control in each microdilution MIC assay. DMSO was serially diluted with a top concentration of 0.5% v/v.

[5] = system: E. faecalis OG1RF; experiment: MIC susceptibility assay (broth microdilution); conditions: Enterococcus faecalis, 16 h, read-out: MIC E. faecalis OG1RF
Method: as §1

[6] = system: MRSA-44; experiment: MIC susceptibility assay (broth microdilution); conditions: Staphylococcus aureus, 16 h, read-out: MIC MRSA-44
Method: as §1

[7] = system: Mtb CDC1551; experiment: microbe, parasite or virus in culture; assay type: cell-based, Mycobacterium tuberculosis; conditions: Mycobacterium tuberculosis, CDC1551, 120 h
[8] = system: human red blood cells; experiment: Hemolysis assay with red blood cells; conditions: human RBCs, 1 hour, 37° C.
Method: Hemolysis assays are used to determine the membrane-lysis activity of a compound, which is of particular interest to this work as membrane-lysing agents (e.g., QACs) can eradicate biofilms.
Cytotoxicity Assay against HEK-293 Cells.^48 The viability of HEK-293 cells was assessed by the MTT assay. The cells were cultured in DMEM medium containing 10% fetal bovine serum and 100 U/mL penicillin and streptomycin. The cells (10^4 cells/well) were seeded onto a 96-well plate and maintained at 37° C. in a humidified incubator under 5% CO2 overnight. […] After incubation at 37° C. for 72 hours, 10 μL of MTT (5 mg/mL) in PBS was added to each well and incubated for 4 hours, followed by the aspiration of the medium. Dimethyl sulfoxide (DMSO, 100 μL) was then added to each well to dissolve the MTT in the wells, and the plate was agitated for 1 hour. The optical density (OD) was measured at 570 nm using a UV/vis microplate spectrophotometer (BioTek). The percent inhibition was calculated as follows: Inhibition (%)=(1−test OD570/non-treated OD570)×100%. The data were analyzed by Origin. Hemolysis Assay with Red Blood Cells. […] The washing was repeated three times with the buffer. In 96-well plate, test compounds were added to the buffer from DMSO stocks. […] The plate was then incubated for 1 hour at 37° C. After incubation, the plate was centrifuged for 5 minutes at 3,500 rpm before 80 μL of the supernatant was transferred to another 96-well plate to obtain an optical density (OD) read at 405 nm. DMSO served as the negative control (0% hemolysis) while Triton X served as the positive control (100% hemolysis) in these experiments. The percent hemolysis was calculated as (OD405 of the compound treated RBCs−OD405 DMSO control)/(OD405 Triton X treated RBCs−OD405 buffer) from three independent experiments.

[9] = system: Mtb H37Ra; experiment: MIC assay for Mtb H37Ra; conditions: seven days, 37° C.
[10] = system: MRSA-1707 biofilms; experiment: Calgary Biofilm Device (CBD) assay; conditions: Staphylococcus aureus, read-out: MRSA-1707 MBC
[11] = system: HepG2 cells; experiment: Alamar Blue cytotoxicity assay, HepG2; conditions: read-out: Hep G2 Cytotox. (IC50), 24-h
[12] = system: HeLa cells; experiment: LDH release assay for HeLa cytotoxicity; conditions: read-out: HeLa Cell Cytotox. (IC50), 24-h, tested at 25, 50 and 100 μM
[13] = system: J774 MΦ; experiment: Alamar Blue cytotoxicity assay, J774 macrophages; conditions: read-out: J774 MΦ Cytotox. (IC50), 24-h
[14] = system: MRSE 35984 biofilms; experiment: Calgary Biofilm Device (CBD) assay; conditions: Staphylococcus epidermidis, MRSE, read-out: MRSE 35984 MBC
[15] = system: E. faecalis OG1RF biofilms; experiment: Calgary Biofilm Device (CBD) assay; conditions: Enterococcus faecalis, OG1RFBIOFILMS, read-out: E.faecalis OG1RF MBC
[16] = system: isdB, sfaA, sbnC, MW0695 transcripts in MRSA-1707 biofilms; experiment: RT-qPCR of iron uptake genes in MRSA biofilms; conditions: 4 h treatment at 1 μM or 1/10×MBEC
[17] = system: VRE 700221 biofilms; experiment: Calgary Biofilm Device (CBD) assay; conditions: Enterococcus, read-out: VRE 700221 MBC
[18] = system: MRSA, MRSE and VRE strains; experiment: MIC assays, summary statements over several Gram-positive strains
Method: as §1

Row | SMILES | MIC [2] [µM] | MIC [3] [µM] | MIC [5] [µM] | MIC [6] [µM] | MIC [7] [µM] | % Hemolysis at 200 μM [8] [%] | IC50 [11] [µM] | IC50 [13] [µM] | also measured
1 | O=[N+]([O-])c1ccc(O)cc1 [4-nitrophenol, reference compound] | – | – | – | – | – | – | – | – | pKa ([1]; UV-vis, 1:1 water:methanol phosphate buffers): 7.52
2 | Oc1cc(Cl)cc2nc3ccccc3nc12 [Compound 18, 3-Chlorophenazin-1-ol] | 25 (≈ 5.77 µg/mL) | 18.8 (≈ 4.34 µg/mL) | – | – | – | – | – | – | MIC [4]: > 50 µM
4 | Cc1ccc2nc3c(O)cc(Cl)cc3nc2c1C [Compound 20, 3-Chloro-6,7-dimethylphenazin-1-ol] | – | – | 12.5 (≈ 3.23 µg/mL) | – | – | – | – | – | –
5 | Oc1cc(Cl)cc2nc3c(Oc4ccccc4)cccc3nc12 [Compound 22, 3-Chloro-6-phenoxyphenazin-1-ol] | 3.13 (≈ 1.01 µg/mL) | 3.13 (≈ 1.01 µg/mL) | – | 3.13 (≈ 1.01 µg/mL) | – | – | – | – | –
6 | Oc1cc(Cl)cc2nc3c(Cl)cc(Cl)cc3nc12 [Compound 24, 3,6,8-Trichlorophenazin-1-ol] | – | – | – | 0.3 (≈ 0.0899 µg/mL) | 2.31 (≈ 0.692 µg/mL) | ≤1 | > 200 | > 200 | MIC Mtb H37Ra [9]: 3.13 µM (≈ 0.938 µg/mL); MBC [10]: 18.8 µM (≈ 5.63 µg/mL); IC50 [12]: > 100 µM
7 | Oc1c(Br)c(Cl)c(Br)c2nc3ccccc3nc12 [Compound 28, 2,4-Dibromo-3-chlorophenazin-1-ol] | 0.15 (≈ 0.0583 µg/mL) | – | 3.13 (≈ 1.22 µg/mL) | – | 4.37 (≈ 1.7 µg/mL) | ≤1 | > 200 | > 200 | pKa [1]: 5.93; MIC Mtb H37Ra [9]: 6.25 µM (≈ 2.43 µg/mL); MBC [10]: 50 µM (≈ 19.4 µg/mL); MBC [14]: 12.5 µM (≈ 4.86 µg/mL); MBC [15]: 75 µM (≈ 29.1 µg/mL); IC50 [12]: > 100 µM; MIC MRSA-1707 ([2]; planktonic growth inhibition, 37° C.): 0.15^a μM and 0.15 μM; iron starvation / up-regulation of iron uptake genes in MRSA-1707 biofilms [16]: induction of iron starvation; also recorded: up-regulating iron uptake genes; also recorded: induced rapid iron starvation; also recorded: rapidly induce iron starvation
8 | Cc1ccc2nc3c(O)c(Br)c(Cl)c(Br)c3nc2c1C [Compound 30, 2,4-Dibromo-3-chloro-6,7-dimethylphenazin-1-ol] | – | ≤ 0.05 | 0.2 (≈ 0.0833 µg/mL) | 0.08 (≈ 0.0333 µg/mL) | 3.62 (≈ 1.51 µg/mL) | ≤1 | > 200 | > 200 | MBC [14]: 3.13 µM (≈ 1.3 µg/mL); MBC [17]: 0.78 µM (≈ 0.325 µg/mL); MIC ([18]; read-out: MIC against MRSA, MRSE and VRE strains): 0.05 to 0.1 µM (≈ 0.0208 to 0.0417 µg/mL); MICs against all Gram-positive strains in the panel ([18]; result in words): sub-micromolar
